According to BindingDB's records for doi:10.1021/jm800571m (The Scripps Research Institute, 2008):

Molecular target: T1, Adenosine 5'-phosphosulfate reductase (Mycobacterium tuberculosis (strain CDC 1551 / Oshkosh), UniProt P9WIK2)
T1 sequence (P9WIK2 whole entry): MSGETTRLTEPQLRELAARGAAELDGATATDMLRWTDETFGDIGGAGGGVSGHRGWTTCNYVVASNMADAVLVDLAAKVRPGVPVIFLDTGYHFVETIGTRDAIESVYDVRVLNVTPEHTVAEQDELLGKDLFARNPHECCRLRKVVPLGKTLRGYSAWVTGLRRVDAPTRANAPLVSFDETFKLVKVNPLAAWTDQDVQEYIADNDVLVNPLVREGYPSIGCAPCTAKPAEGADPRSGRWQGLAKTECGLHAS
Test: Determination of Dissociation Constant (Kd)
Settings: pH 7.5; 30 °C
Experimental: Values of Ki were determined from the dependence of the observed rate constant (kobs) on inhibitor concentration. […] A range of inhibitor concentrations was employed from at least 5-fold below to 10-fold above the inhibition constant. Nonlinear least-squares fits of the equation for competitive inhibition gave excellent fits in all cases, and the standard error was typically less than 15%.

SMILES | Kd
O=C(O)CSc1nnc2c3ccccc3c3ccccc3c2n1 [2-(1,2,4-triazatriphenylen-3-ylsulfanyl)acetic acid] | 46.8 µM
CC(=O)[C@H]1CC[C@@H]2[C@]1(C)CC=C1[C@]23C=C[C@]2(C[C@@H](O)CC[C@]12C)C(C(=O)O)C3C(=O)O (stereo partly drawn) [(1R,2R,5S,6S,10S,13S,15R)-5-acetyl-13-hydroxy-6,10-dimethylpentacyclo[13.2.2.0^{1,9}.0^{2,6}.0^{10,15}]nonadeca-8,18-diene-16,17-dicarboxylic acid] | 127 µM
